{
  "source": "patent US8221975B2",
  "about": "“Method for detection of microorganism” (Morinaga Milk Industry Co., Ltd., priority 2007, dated 2012)",
  "key": {"[1]": {"tested_on": "Salmonella enteritidis IIP 604", "test": "invA real-time PCR (378 bp) of EMA-treated Salmonella, Ct value", "type": "cell-based"}, "[2]": {"tested_on": "Enterobacter sakazakii ATCC 6538P", "test": "MMS real-time PCR (79 bp) of EMA-treated Enterobacter sakazakii, Ct value", "type": "cell-based", "method": "In the case where the real-time PCR is employed, changes in fluorescent intensities are generally noise levels and about zero if the number of amplification cycles is in the range of 1 to 10. Therefore, the intensities are regarded as sample blanks containing no amplification products. The standard deviation (SD) of the changes is calculated, and a value obtained by multiplying the SD value by 10 is defined as a threshold value. The number of PCR cycles in which a value larger than the threshold value is achieved for the first time referred to as “cycle threshold value (Ct value)”. Therefore, the larger the initial amount of a DNA template in a PCR reaction solution, the smaller the Ct value, while the smaller the amount of the template DNA, the larger the Ct value. Even if the amounts of the template DNA are the same, the higher the proportion of the template where a target region of PCR has been cleaved, the larger the Ct value in PCR reactions for the region.\nA Gram-negative bacterium, Enterobacter sakazakii (Enterobacter sakazakii ATCC 6538P; hereinafter, abbreviated as “sakazakii” in some cases), was cultured in brain-heart infusion (BHI) broth at 37° C., and 5 ml of the culture medium in the logarithmic growth phase was centrifuged at 8,000×g for 15 minutes at 4° C., followed by removal of the supernatant. 5 ml of physiological saline was added to the bacterial cells, and the whole was vigorously stirred and diluted 10-fold. Thus, a live cell suspension was prepared. The number of the live cells in the live cell suspension was determined in a standard agar plate medium and found to be 8.38±0.25 log10 cfu/ml.\nThe live cell suspension (1 ml) was placed in a 1.5-ml microtube, and the microtube was immersed in boiling water for 2 minutes and immediately cooled with ice water, to thereby prepare a injured cell suspension. The cells in the suspension probably include small numbers of live cells and dead cells but include mainly injured cells. Therefore, the cells are simply referred to as “injured cells”. Note that the method of the present invention is originally intended to detect live cells, and microorganism cells distinguished from live cells may be injured cells or dead cells.\nEthidium monoazide (EMA) was added to the live cell suspension and injured cell suspension of sakazakii prepared above at a final concentration of 0, 10, 25, or 100 μg/ml, and the suspensions were allowed to stand under shading at 4° C. for 10 minutes. The suspensions were placed on ice and irradiated for 5 minutes with a 500-W visible light (FLOOD PRF: 100 V, 500 W, IWASAKI ELECTRIC CO., LTD., wavelength: 500 to 700 nm) at a distance of 20 cm from the suspensions. Then, the suspensions were centrifuged at 15,000×g for 10 minutes at 4° C., and the supernatants were removed. An equal volume of physiological saline was added thereto, and the suspensions were stirred and centrifuged while cooling at 15,000×g for 10 minutes at 4° C., followed by removal of the supernatants. An equal volume of brain-heart infusion (BHI) broth was added thereto, and the suspensions were incubated at 37° C. for 2 hours.\nIn the […] EMA treatment, EMA was not added again to the live cell and injured cell suspensions having an EMA concentration of 0, […] The suspensions were allowed to stand under shading at 4° C. for 10 minutes, placed on ice, and irradiated for 5 minutes with a 500-W visible light at a distance of 20 cm from the suspensions.\nEthidium monoazide (EMA) was added to the live cell and injured cell suspensions of sakazakii prepared in the section “1.” at a final concentration of 0, 10, 25 or 100 μg/ml, and the suspensions were allowed to stand under shading at 4° C. for 10 minutes, placed on ice, and irradiated for 5 minutes with a 500-W visible light (FLOOD PRF: 100V, 500 W, IWASAKI ELECTRIC CO., LTD., wavelength: 500 to 700 nm) at a distance of 20 cm from the suspensions. […]"}, "[3]": {"conditions": "single-step EMA 10 μg/ml, Injured cell"}, "[4]": {"conditions": "single-step EMA 10 μg/ml, Live cell"}, "[5]": {"conditions": "single-step EMA 25 μg/ml, Injured cell"}, "[6]": {"conditions": "single-step EMA 25 μg/ml, Live cell"}, "[7]": {"conditions": "single-step EMA 100 μg/ml, Injured cell"}, "[8]": {"conditions": "single-step EMA 100 μg/ml, Live cell"}, "[9]": {"conditions": "two-step EMA 10/10 μg/ml, Injured cell"}, "[10]": {"conditions": "two-step EMA 10/10 μg/ml, Live cell"}, "[11]": {"conditions": "two-step EMA 25/10 μg/ml, Injured cell"}, "[12]": {"conditions": "two-step EMA 25/10 μg/ml, Live cell"}, "[13]": {"conditions": "two-step EMA 100/10 μg/ml, Injured cell"}, "[14]": {"conditions": "two-step EMA 100/10 μg/ml, Live cell"}},
  "note": "Where “and” joins values, the source holds several entries; their conditions need not be identical. Equal values may be shown once.",
  "data": [
    {"smiles": "CC[n+]1c(-c2ccccc2)c2cc(N=[N+]=[N-])ccc2c2ccc(N)cc21", "note": "[EMA, ethidium monoazide]", "values": [
      {"measurement": "Ct value (mean ± SD, N = 2)", "setting": "[1]; [3]", "result": "31.6 ± 4.7"},
      {"measurement": "number of times of positive reaction in two PCR assays (i/2)", "setting": "[1]; [3]", "result": "(2/2)"},
      {"measurement": "Ct value (mean ± SD, N = 2)", "setting": "[1]; [4]", "result": "16.2 ± 0.4"},
      {"measurement": "number of times of positive reaction in two PCR assays (i/2)", "setting": "[1]; [4]", "result": "(2/2)"},
      {"measurement": "Ct value (mean ± SD, N = 2)", "setting": "[1]; [5]", "result": "ND, ND^c,d"},
      {"measurement": "number of times of positive reaction in two PCR assays (i/2)", "setting": "[1]; [5]", "result": "(0/2)"},
      {"measurement": "Ct value (mean ± SD, N = 2)", "setting": "[1]; [6]", "result": "18.23±0.3 and 18.2 ± 0.3"},
      {"measurement": "number of times of positive reaction in two PCR assays (i/2)", "setting": "[1]; [6]", "result": "(2/2)"},
      {"measurement": "Ct value (mean ± SD, N = 2)", "setting": "[1]; [7]", "result": "ND, ND"},
      {"measurement": "number of times of positive reaction in two PCR assays (i/2)", "setting": "[1]; [7]", "result": "(0/2)"},
      {"measurement": "Ct value (mean ± SD, N = 2)", "setting": "[1]; [8]", "result": "27.7±3.8 and 27.7 ± 3.6"},
      {"measurement": "number of times of positive reaction in two PCR assays (i/2)", "setting": "[1]; [8]", "result": "(2/2)"},
      {"measurement": "Ct value (mean ± SD, N = 2)", "setting": "[1]; [9]", "result": "ND, ND"},
      {"measurement": "number of times of positive reaction in two PCR assays (i/2)", "setting": "[1]; [9]", "result": "(0/2)"},
      {"measurement": "Ct value (mean ± SD, N = 2)", "setting": "[1]; [10]", "result": "16.0±3.5"},
      {"measurement": "number of times of positive reaction in two PCR assays (i/2)", "setting": "[1]; [10]", "result": "(2/2)"},
      {"measurement": "Ct value (mean ± SD, N = 2)", "setting": "[1]; [11]", "result": "ND, ND"},
      {"measurement": "number of times of positive reaction in two PCR assays (i/2)", "setting": "[1]; [11]", "result": "(0/2)"},
      {"measurement": "Ct value (mean ± SD, N = 2)", "setting": "[1]; [12]", "result": "18.9 ± 2.2"},
      {"measurement": "number of times of positive reaction in two PCR assays (i/2)", "setting": "[1]; [12]", "result": "(2/2)"},
      {"measurement": "Ct value (mean ± SD, N = 2)", "setting": "[1]; [13]", "result": "ND, ND"},
      {"measurement": "number of times of positive reaction in two PCR assays (i/2)", "setting": "[1]; [13]", "result": "(0/2)"},
      {"measurement": "Ct value (mean ± SD, N = 2)", "setting": "[1]; [14]", "result": "27.9 ± 3.0"},
      {"measurement": "number of times of positive reaction in two PCR assays (i/2)", "setting": "[1]; [14]", "result": "(2/2)"},
      {"measurement": "Ct value (mean ± SD, N = 2)", "setting": "[2]; [3]", "result": "27.6 ± 0.1"},
      {"measurement": "number of times of positive reaction in two PCR assays (i/2)", "setting": "[2]; [3]", "result": "(2/2)"},
      {"measurement": "Ct value (mean ± SD, N = 2)", "setting": "[2]; [4]", "result": "20.8 ± 0.9"},
      {"measurement": "Ct value (mean ± SD, N = 2)", "setting": "[2]; [5]", "result": "27.3 ± 1.0"},
      {"measurement": "number of times of positive reaction in two PCR assays (i/2)", "setting": "[2]; [5]", "result": "(2/2)"},
      {"measurement": "Ct value (mean ± SD, N = 2)", "setting": "[2]; [6]", "result": "19.9 ± 1.3"},
      {"measurement": "Ct value (mean ± SD, N = 2)", "setting": "[2]; [7]", "result": "25.2 ± 0.5"},
      {"measurement": "number of times of positive reaction in two PCR assays (i/2)", "setting": "[2]; [7]", "result": "(2/2)"},
      {"measurement": "Ct value (mean ± SD, N = 2)", "setting": "[2]; [8]", "result": "22.2 ± 1.0"},
      {"measurement": "Ct value (mean ± SD, N = 2)", "setting": "[2]; [10]", "result": "17.1 ± 1.8"},
      {"measurement": "Ct value (mean ± SD, N = 2)", "setting": "[2]; [12]", "result": "18.5 ± 2.5"},
      {"measurement": "Ct value (mean ± SD, N = 2)", "setting": "[2]; [13]", "result": "27.3, ND^d,e"},
      {"measurement": "Ct value (mean ± SD, N = 2)", "setting": "[2]; [14]", "result": "22.9 ± 1.0"}
    ]}
  ]
}
